Measurements published in ChEMBL document CHEMBL5131391, “One-pot three-component synthesis of novel pyrazolo[3,4-b]pyridines as potent antileukemic agents” (Eur J Med Chem, 2022).
Calls of active or inactive are those of the source. The rule behind the calls is not given here.

Columns and labels:
Type in all cases: functional
RS4-11 = assay: Induction of cell cycle arrest in human RS4-11 cells assessed as accumulation of cells in G2/M phase at 1.25 to 10 uM measured after 72 hrs by PI staining based flow cytometry analysis; conditions: dose 1.25-10 µM
MOLT-4 = assay: Antiproliferative activity against human MOLT-4 cells assessed as growth inhibition measured after 48 hrs by NCI protocol based SRB assay
HL-60(TB) [1] = assay: Antiproliferative activity against human HL-60(TB) cells assessed as growth inhibition measured after 48 hrs by NCI protocol based SRB assay
SR = assay: Antiproliferative activity against human SR cells assessed as growth inhibition measured after 48 hrs by NCI protocol based SRB assay
NCI-H522 = assay: Antiproliferative activity against human NCI-H522 cells assessed as growth inhibition measured after 48 hrs by NCI protocol based SRB assay
NCI-H226 [2] = assay: Antiproliferative activity against human NCI-H226 cells assessed as growth inhibition measured after 48 hrs by NCI protocol based SRB assay
NCI-H23 = assay: Antiproliferative activity against human NCI-H23 cells assessed as growth inhibition measured after 48 hrs by NCI protocol based SRB assay
HCT-15 = assay: Antiproliferative activity against human HCT-15 cells assessed as growth inhibition measured after 48 hrs by NCI protocol based SRB assay
COLO 205 = assay: Antiproliferative activity against human COLO 205 cells assessed as growth inhibition measured after 48 hrs by NCI protocol based SRB assay
SNB-75 [3] = assay: Antiproliferative activity against human SNB-75 cells assessed as growth inhibition measured after 48 hrs by NCI protocol based SRB assay
U-251 = assay: Antiproliferative activity against human U-251 cells assessed as growth inhibition measured after 48 hrs by NCI protocol based SRB assay
M14 = assay: Antiproliferative activity against human M14 cells assessed as growth inhibition measured after 48 hrs by NCI protocol based SRB assay
LOX IMVI [4] = assay: Antiproliferative activity against human LOX IMVI cells assessed as growth inhibition measured after 48 hrs by NCI protocol based SRB assay
SK-MEL-5 = assay: Antiproliferative activity against human SK-MEL-5 cells assessed as growth inhibition measured after 48 hrs by NCI protocol based SRB assay
OVCAR-5 [5] = assay: Antiproliferative activity against human OVCAR-5 cells assessed as growth inhibition measured after 48 hrs by NCI protocol based SRB assay
786-0 = assay: Antiproliferative activity against human 786-0 cells assessed as growth inhibition measured after 48 hrs by NCI protocol based SRB assay
SN12C = assay: Antiproliferative activity against human SN12C cells assessed as growth inhibition measured after 48 hrs by NCI protocol based SRB assay
ACHN [6] = assay: Antiproliferative activity against human ACHN cells assessed as growth inhibition measured after 48 hrs by NCI protocol based SRB assay
A498 [7] = assay: Antiproliferative activity against human A498 cells assessed as growth inhibition measured after 48 hrs by NCI protocol based SRB assay
TK-10 = assay: Antiproliferative activity against human TK-10 cells assessed as growth inhibition measured after 48 hrs by NCI protocol based SRB assay
UO-31 = assay: Antiproliferative activity against human UO-31 cells assessed as growth inhibition measured after 48 hrs by NCI protocol based SRB assay
MDA-MB-231 = assay: Antiproliferative activity against human MDA-MB-231 cells assessed as growth inhibition measured after 48 hrs by NCI protocol based SRB assay
BT-549 [8] = assay: Antiproliferative activity against human BT-549 cells assessed as growth inhibition measured after 48 hrs by NCI protocol based SRB assay
HL-60(TB) [9] = assay: Cytostatic activity in human HL-60(TB) cells assessed as tumor growth inhibition measured after 48 hrs by NCI protocol based SRB assay
A549 = assay: Cytostatic activity in human A549 cells assessed as tumor growth inhibition measured after 48 hrs by NCI protocol based SRB assay
NCI-H226 [10] = assay: Cytostatic activity in human NCI-H226 cells assessed as tumor growth inhibition measured after 48 hrs by NCI protocol based SRB assay
KM12 = assay: Cytostatic activity in human KM12 cells assessed as tumor growth inhibition measured after 48 hrs by NCI protocol based SRB assay
SW-620 = assay: Cytostatic activity in human SW-620 cells assessed as tumor growth inhibition measured after 48 hrs by NCI protocol based SRB assay
SF-539 = assay: Cytostatic activity in human SF-539 cells assessed as tumor growth inhibition measured after 48 hrs by NCI protocol based SRB assay
SF-295 = assay: Cytostatic activity in human SF-295 cells assessed as tumor growth inhibition measured after 48 hrs by NCI protocol based SRB assay
SNB-75 [11] = assay: Cytostatic activity in human SNB-75 cells assessed as tumor growth inhibition measured after 48 hrs by NCI protocol based SRB assay
LOX IMVI [12] = assay: Cytostatic activity in human LOX IMVI cells assessed as tumor growth inhibition measured after 48 hrs by NCI protocol based SRB assay
OVCAR-3 = assay: Cytostatic activity in human OVCAR-3 cells assessed as tumor growth inhibition measured after 48 hrs by NCI protocol based SRB assay
OVCAR-4 = assay: Cytostatic activity in human OVCAR-4 cells assessed as tumor growth inhibition measured after 48 hrs by NCI protocol based SRB assay
OVCAR-5 [13] = assay: Cytostatic activity in human OVCAR-5 cells assessed as tumor growth inhibition measured after 48 hrs by NCI protocol based SRB assay
SK-OV-3 = assay: Cytostatic activity in human SK-OV-3 cells assessed as tumor growth inhibition measured after 48 hrs by NCI protocol based SRB assay
ACHN [14] = assay: Cytostatic activity in human ACHN cells assessed as tumor growth inhibition measured after 48 hrs by NCI protocol based SRB assay
A498 [15] = assay: Cytostatic activity in human A498 cells assessed as tumor growth inhibition measured after 48 hrs by NCI protocol based SRB assay
BT-549 [16] = assay: Cytostatic activity in human BT-549 cells assessed as tumor growth inhibition measured after 48 hrs by NCI protocol based SRB assay
[17] = read-out: LC50 (the source's name)

Cc1ccc(-c2nc3c(c(-c4ccccc4)nn3-c3ccccc3)c(-c3ccc(O)cc3)c2C#N)cc1
Activity (RS4-11): Active

N#Cc1c(-c2ccccc2)nc2c(c(-c3ccccc3)nn2-c2ccccc2)c1-c1ccc(O)cc1
GI50 (MOLT-4): 2.49 µM | CC50 (MOLT-4; [17]): > 100 µM | GI50 (HL-60(TB) [1]): 3.52 µM | CC50 (HL-60(TB) [1]; [17]): > 100 µM | GI50 (SR): 2.95 µM | CC50 (SR; [17]): > 100 µM | GI50 (NCI-H522): 2.32 µM | CC50 (NCI-H522; [17]): > 100 µM | GI50 (NCI-H226 [2]): 1.97 µM | CC50 (NCI-H226 [2]; [17]): 37.3 µM | GI50 (NCI-H23): 1.78 µM | CC50 (NCI-H23; [17]): 8.26 µM | GI50 (HCT-15): 1.62 µM | CC50 (HCT-15; [17]): 8.9 µM | GI50 (COLO 205): 2.61 µM | CC50 (COLO 205; [17]): 58.2 µM | GI50 (SNB-75 [3]): 2.03 µM | CC50 (SNB-75 [3]; [17]): 28.3 µM | GI50 (U-251): 1.63 µM | CC50 (U-251; [17]): 9.71 µM | GI50 (M14): 2.27 µM | CC50 (M14; [17]): 23 µM | GI50 (LOX IMVI [4]): 1.68 µM | CC50 (LOX IMVI [4]; [17]): 5.55 µM | GI50 (SK-MEL-5): 1.75 µM | CC50 (SK-MEL-5; [17]): 5.79 µM | GI50 (OVCAR-5 [5]): 1.75 µM | CC50 (OVCAR-5 [5]; [17]): 6.66 µM | GI50 (786-0): 2.16 µM | CC50 (786-0; [17]): 31.8 µM | GI50 (SN12C): 1.64 µM | CC50 (SN12C; [17]): 5.63 µM | GI50 (ACHN [6]): 2.24 µM | CC50 (ACHN [6]; [17]): 20.5 µM | GI50 (A498 [7]): 1.66 µM | CC50 (A498 [7]; [17]): 5.69 µM | GI50 (TK-10): 2.89 µM | CC50 (TK-10; [17]): > 100 µM | GI50 (UO-31): 2.02 µM | CC50 (UO-31; [17]): 8.59 µM | GI50 (MDA-MB-231): 1.7 µM | CC50 (MDA-MB-231; [17]): 6.44 µM | GI50 (BT-549 [8]): 2 µM | CC50 (BT-549 [8]; [17]): 9.92 µM | TGI (HL-60(TB) [9]): 23.7 µM | TGI (A549): 6.87 µM | TGI (NCI-H226 [10]): 4.51 µM | TGI (KM12): 4.76 µM | TGI (SW-620): 3.53 µM | TGI (SF-539): 2.76 µM | TGI (SF-295): 4.29 µM | TGI (SNB-75 [11]): 7.28 µM | TGI (LOX IMVI [12]): 3.05 µM | TGI (OVCAR-3): 4.45 µM | TGI (OVCAR-4): 4.66 µM | TGI (OVCAR-5 [13]): 3.41 µM | TGI (SK-OV-3): 8.48 µM | TGI (ACHN [14]): 5.89 µM | TGI (A498 [15]): 3.07 µM | TGI (BT-549 [16]): 4.45 µM
